This note sets out measurements from patent US20210323918A1, “COMPOSITIONS AND METHODS FOR SUPPRESSING AND/OR TREATING A GROWTH RELATED DISEASE AND/OR A CLINICAL CONDITION THEREOF” (CK Biotech Inc., priority 2018, published 2021).

For data set [1], the system named is Tibial organ cultures (E15.5). The experiment in a line: Tibial organ culture (ex vivo). Also noted: species or system mice. Conditions: 100 nM for 6 days. The method, then: Tibial organ culture. Tibiae were isolated from embryonic day 15.5 (e15.5) mice and cultured for 6 days in phenol red-free a-MEM (Gibco) containing ascorbic acid, β-glycerophosphate, BSA, L-glutamine, and penicillin-streptomycin, as previously described (Gillespie et al, 2011). After dissection, tibiae were incubated in medium overnight and then treated with E2 (Sigma-Aldrich). Media and reagents were changed every 48 hours. Tibial images were captured using a SMZ-745T microscope (Nikon). Tibial length was measured prior to treatment and after 6 days in culture. The samples were then prepared for paraffin embedding, sectioned, and analyzed by H&E and IHC staining.

Data set [2] can be described thus: In vivo pharmacokinetics of KY19382. The conditions noted are these: rat. Also noted: species or system Sprague-Dawley (SD) rats. The method, then: In vivo pharmacokinetics of KY19382. Animal studies were approved by the Institutional Animal Care and use committee at KRIBB. Briefly, specific pathogen-free male Sprague-Dawley (SD) rats (10 weeks old, body weight 298-315 g), purchased from Koatech Co. (Kyeonggi, Republic of Korea), were given a single dose of KY19382 intravenously (iv, 1 mg/kg, n=3) or intraperitoneal (ip, 5 mg/kg, n=3). […] A 100 μl aliquot of each plasma sample was prepared, and three volumes of ice-cold acetonitrile containing carbamazepine (internal standard) were added. The mixture was centrifuged at 910 g for 10 min, and the supernatant was subjected to LC-MS/MS analysis. Pharmacokinetic parameters were calculated by standard noncompartmental analysis of plasma concentration-time profiles using Kinetica 4.4.1 (Thermo Fisher Scientific, Inc., Woburn, Mass., USA). The areas under the plasma concentration-time curves (AUC) were calculated by the linear-trapezoidal method. Systemic plasma clearance (CLP) was calculated as follows: CLP=dose/AUCinf. […] Volume of distribution at steady state (VSS) was calculated as follows: VSS=dose×AUMCinf/(AUCinf)2, where AUMCinf is the area under the first moment of the plasma concentration-time curve extrapolated to infinity Bioavailability (F) was calculated as follows: F (%)=(AUCip/AUCiv)(doseiv/doseip)×100.

The nature of data set [3]: Toxicity observation during 10 weeks of treatment in mice. It is filed as in vivo. The method, then: Animals. Cxxc5^−/− mice were established in a previous study. See e.g., Kim H. Y. et al. (2015), CXXC5 is a negative feedback regulator of the Wnt/beta-catenin pathway involved in osteoblast differentiation. CELL DEATH DIFFER 22: 912-920. To manipulate growth plate senescence by estrogen, 3-week-old […] Cxxc5^−/− male mice received weekly intramuscular (i.m.) injections of either 70 μg/kg estradiol (E2) cypionate (Sigma-Aldrich) or vehicle (cottonseed oil) for 3 weeks. To investigate the effects of KY19382 treatment on longitudinal bone growth, C57BL/6 male mice were purchased from KOATECH (Gyeonggido, Korea). KY19382 (0.1 ing/kg) was administered daily by intraperitoneal (i.p.) injection to 3- and 7-week-old mice for 2 weeks or to 3-week-old mice for 10 weeks. For BrdU labeling experiments, mice were i.p. injected with 50 mg/kg BrdU (Sigma-Aldrich) before 24 hours to sacrifice. […]
Radiographic and histochemical analyses. […] For fluorescence staining, the sections were incubated with primary antibody at 4° C. overnight, followed by incubation with anti-mouse Alexa Fluor 488 (ThermoFisher Scientific, A11008; 1:200) or anti-rabbit Alex Fluor 555 (ThermoFisher Scientific, A21428; 1:200) secondary antibodies at room temperature for 1 hour. […]

Where [4] appears, read: male, Sprague-Dawley, plasma, IP, 5 mg/kg, mean.
Setting [5] is: male, Sprague-Dawley, plasma, IV, 1 mg/kg, mean.

For the compound 17β-estradiol [Compound E2], the tibial length entry in data set [1] is on record as “reduced”.
For the compound `CO/N=C1/C(=C2/C(=O)Nc3cc(Cl)c(Cl)cc32)Nc2ccccc21` [KY19382, 5,6-dichloroindirubin-3′-methoxime], the “CL” value in data set [2] (IP, 5 mg/kg, mean) is 7.83 mL/min/kg. Besides, the bioavailability (commonly the share of a dose that reaches the circulation, judged against a reference dose that is usually intravenous) in data set [2] (male, Sprague-Dawley, plasma, intraperitoneal, IP, 5 mg/kg vs IV, 1 mg/kg) worked out at 16.7%. Also, in data set [2] (setting [4]), the AUC(0-t) – broadly, exposure summed from dosing to a finite time, without extrapolation to infinity – amounted to 6560 ng·h/mL; the Cmax (in general, the maximum level reached in the sampled fluid or tissue) was 463 ng/mL; the Tmax (in general, the time at which the peak concentration occurs) is 1 h; the half-life (commonly how long it takes for the measured level to halve) was 16.2 h. Besides, in data set [2] (setting [5]), the AUC(0-t) is 7830 ng·h/mL; the clearance – broadly, the rate of elimination divided by the concentration – is 2 mL/min/kg; the half-life is 3.33 h. For the same compound, the Vd in data set [2] (male, Sprague-Dawley, plasma, IV, 1 mg/kg, mean, read-out: Vss) came out at 0.33 L/kg. Moreover, the “histological abnormalities in articular cartilage and liver tissues” value in data set [3] (0.1 mg/kg daily for 10 weeks) was “no histological abnormalities”. Further, in data set [3] (0.1 mg/kg daily, 10 weeks of treatment, vs vehicle), the weight during treatment entry is listed as “no difference”.
